Measured values: patent US20260365653A1, “IRREVERSIBLE MUTEGFR INHIBITORS” (Bayer Aktiengesellschaft, priority 2022, published 2026)

Experiments:
[1] = molecular target: T1, mutEGFR (D770_N771insSVD) (Homo sapiens, UniProt P00533, DUP768-770); assay: Exon20-Mutant-EGFR (D770_N771insSVD) kinase assay (TR-FRET); type: biochemical; settings: mutEGFR (D770_N771insSVD) kinase assay IC50, Table 2a; D770_N771insSVD; 2 mM ATP
T1 construct: GST-EGFR #3 (SVD between D770 and N771); made in house; host or cells: Sf9 insect cells (baculovirus)

[2] = molecular target: T2, mutEGFR (D770_N771insNPG, T790) (Homo sapiens, UniProt P00533, INS770NPG/T790M); assay: mutEGFR (D770_N771insNPG, T790) kinase assay; type: biochemical; settings: Table 2a, D770_N771insNPG
T2 construct: exact insNPG construct not described; in-house EGFR proteins were N-terminal GST fusions from baculovirus/insect cells (borders R669-A1210 given only for WT, insSVD, insASV)
From the text: The different EGFR proteins used in the biochemical kinase activity inhibition assays were generated inhouse by expression in insect cells using Baculo Virus system and subsequent purification as described in the following paragraphs.
The cDNAs encoding the various protein sequences from human EGFR human (P00533) were optimized for expression in eukaryotic cells and synthesized by the GeneArt Technology at Life Technologies.

BA/F3 (insSVD) cells = assay: Ba/F3-EGFR-insSVD cell survival assay (Cell Titer-Glo); type: cell-based; settings: Mus musculus, BaF3, 48 h, Table 3a, cell survival, Cell Titer-Glo, with 10 ng/ml EGF, without IL-3
Method in brief: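 Ba/F3 cells stably expressing retroviral EGFR-insSVD or insSVD T790M, grown without IL-3 on 10 ng/ml EGF, 4000 cells/well. Compound pinned in, 48 h at 37° C. Viability by CellTiter-Glo luminescence.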

T2 sequence (P00533 with tags, fused parts or gaps INS770NPG/T790M limits assumed): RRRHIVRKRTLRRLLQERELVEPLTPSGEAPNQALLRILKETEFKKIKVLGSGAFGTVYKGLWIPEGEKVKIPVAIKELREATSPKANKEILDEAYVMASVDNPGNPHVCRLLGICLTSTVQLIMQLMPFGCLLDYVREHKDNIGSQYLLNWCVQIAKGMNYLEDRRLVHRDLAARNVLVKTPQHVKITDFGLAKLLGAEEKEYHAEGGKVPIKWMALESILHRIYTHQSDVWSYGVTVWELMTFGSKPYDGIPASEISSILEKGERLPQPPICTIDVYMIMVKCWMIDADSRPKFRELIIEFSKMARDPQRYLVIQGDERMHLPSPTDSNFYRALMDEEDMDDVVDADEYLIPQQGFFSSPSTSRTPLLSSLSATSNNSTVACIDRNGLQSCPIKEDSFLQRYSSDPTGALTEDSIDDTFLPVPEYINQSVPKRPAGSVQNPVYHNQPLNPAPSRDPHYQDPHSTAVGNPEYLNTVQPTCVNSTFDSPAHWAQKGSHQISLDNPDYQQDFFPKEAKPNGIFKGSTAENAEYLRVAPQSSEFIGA
T1 sequence (P00533 with tags, fused parts or gaps DUP768-770): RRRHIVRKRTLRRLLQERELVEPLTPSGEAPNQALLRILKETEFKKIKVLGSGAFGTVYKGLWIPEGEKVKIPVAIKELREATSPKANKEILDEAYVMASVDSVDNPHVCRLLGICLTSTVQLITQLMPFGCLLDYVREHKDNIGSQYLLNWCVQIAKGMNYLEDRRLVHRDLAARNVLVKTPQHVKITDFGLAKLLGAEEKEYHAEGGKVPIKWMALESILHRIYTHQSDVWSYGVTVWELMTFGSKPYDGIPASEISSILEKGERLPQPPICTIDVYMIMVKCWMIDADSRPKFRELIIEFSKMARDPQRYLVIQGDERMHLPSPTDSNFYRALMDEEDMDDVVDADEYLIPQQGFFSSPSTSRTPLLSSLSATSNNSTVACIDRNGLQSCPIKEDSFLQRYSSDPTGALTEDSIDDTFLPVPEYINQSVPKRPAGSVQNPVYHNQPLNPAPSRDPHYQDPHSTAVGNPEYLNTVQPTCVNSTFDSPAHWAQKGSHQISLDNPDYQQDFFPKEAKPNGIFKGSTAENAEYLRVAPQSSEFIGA

Row | Compound | IC50 [1] [nM] | IC50 [2] [nM] | IC50 (BA/F3 (insSVD) cells) [nM]
1 | C=CC(=O)N1CCn2nc(-c3ccc(C(F)(F)F)cc3)c(-c3ccnc4[nH]c(C)c(C)c34)c2C1 [Example 56, 1-[3-(2,3-dimethyl-1H-pyrrolo[2,3-b]pyridin-4-yl)-2-[4-(trifluoromethyl)phenyl]-6,7-dihydropyrazolo[1,5-a]pyrazin-5(4H)-yl]prop-2-en-1-one] | 281 | 670 | 124
2 | Cc1c[nH]c2nccc(-c3c(-c4ccc(Cl)cc4F)nn4c3CN(C(=O)/C=C/CN(C)C)CC4)c12 [Example 57, (2E)-1-[2-(4-chloro-2-fluorophenyl)-3-(3-methyl-1H-pyrrolo[2,3-b]pyridin-4-yl)-6,7-dihydropyrazolo[1,5-a]pyrazin-5(4H)-yl]-4-(dimethylamino)but-2-en-1-one] | 165 | 256 | 85.7
3 | Cc1c[nH]c2nccc(-c3c(-c4ccc(C(F)(F)F)cc4)nn4c3CN(C(=O)/C=C/CN(C)C)CC4)c12 [Example 58, (2E)-4-(dimethylamino)-1-[3-(3-methyl-1H-pyrrolo[2,3-b]pyridin-4-yl)-2-[4-(trifluoromethyl)phenyl]-6,7-dihydropyrazolo[1,5-a]pyrazin-5(4H)-yl]but-2-en-1-one] | 446 | 1300 | 138
4 | COc1ccc(-c2nn3c(c2-c2ccnc4[nH]cc(C)c24)CN(C(=O)/C=C/CN(C)C)CC3)cc1F [Example 59, (2E)-4-(dimethylamino)-1-[2-(3-fluoro-4-methoxyphenyl)-3-(3-methyl-1H-pyrrolo[2,3-b]pyridin-4-yl)-6,7-dihydropyrazolo[1,5-a]pyrazin-5(4H)-yl]but-2-en-1-one] | 813 | 956 | 488
5 | COc1ccc(-c2nn3c(c2-c2ccnc4[nH]cc(C)c24)CN(C(=O)/C=C/CN(C)C)CC3)cc1 [Example 60, (2E)-4-(dimethylamino)-1-[2-(4-methoxyphenyl)-3-(3-methyl-1H-pyrrolo[2,3-b]pyridin-4-yl)-6,7-dihydropyrazolo[1,5-a]pyrazin-5(4H)-yl]but-2-en-1-one] | 939 | 1410 | 647
6 | Cc1c[nH]c2nccc(-c3c(-c4cccc(C#N)c4)nn4c3CN(C(=O)/C=C/CN(C)C)CC4)c12 [Example 61, 3-{5-[(2E)-4-(dimethylamino)but-2-enoyl]-3-(3-methyl-1H-pyrrolo[2,3-b]pyridin-4-yl)-4,5,6,7-tetrahydropyrazolo[1,5-a]pyrazin-2-yl}benzonitrile] | 2380 | 398 | 922
7 | C=C(CN(C)C)C(=O)N1CCn2nc(-c3ccc(F)cc3)c(-c3ccncc3)c2C1 [Example 62, 2-[(dimethylamino)methyl]-1-[2-(4-fluorophenyl)-3-(pyridin-4-yl)-6,7-dihydropyrazolo[1,5-a]pyrazin-5(4H)-yl]prop-2-en-1-one] | 29.5 | 87.6 | 390
8 | C=C(CN1CCOCC1)C(=O)N1CCn2nc(-c3ccc(F)cc3)c(-c3ccncc3)c2C1 [Example 64, 1-[2-(4-fluorophenyl)-3-(pyridin-4-yl)-6,7-dihydropyrazolo[1,5-a]pyrazin-5(4H)-yl]-2-[(morpholin-4-yl)methyl]prop-2-en-1-one] | 268 | 698 | 5050
9 | COC/C=C/C(=O)N1CCn2nc(-c3ccc(F)cc3)c(-c3ccncc3)c2C1 [Example 66, (2E)-1-[2-(4-fluorophenyl)-3-(pyridin-4-yl)-6,7-dihydropyrazolo[1,5-a]pyrazin-5(4H)-yl]-4-methoxybut-2-en-1-one] | 87.2 | 222 | 1750
10 | O=C(C#CCN1CCOCC1)N1CCn2nc(-c3ccc(F)cc3)c(-c3ccncc3)c2C1 [Example 68, 1-[2-(4-fluorophenyl)-3-(pyridin-4-yl)-6,7-dihydropyrazolo[1,5-a]pyrazin-5(4H)-yl]-4-(morpholin-4-yl) but-2-yn-1-one] | 5.33 | 11.9 | 60.2
11 | O=C(/C=C/CO)N1CCn2nc(-c3ccc(F)cc3)c(-c3ccncc3)c2C1 [Example 70, (2E)-1-[2-(4-fluorophenyl)-3-(pyridin-4-yl)-6,7-dihydropyrazolo[1,5-a]pyrazin-5(4H)-yl]-4-hydroxybut-2-en-1-one] | 26.1 | 90.2 | 862
12 | CN1CC=C(C(=O)N2CCn3nc(-c4ccc(Cl)cc4F)c(-c4ccncc4)c3C2)C1 [Example 76, [2-(4-chloro-2-fluorophenyl)-3-(pyridin-4-yl)-6,7-dihydropyrazolo[1,5-a]pyrazin-5(4H)-yl](1-methyl-2,5-dihydro-1H-pyrrol-3-yl) methanone] | 30.3 | 77.3 | 666

Now those with a lower IC50 [1], led by results:

Row | IC50 [1] [nM] | IC50 [2] [nM] | Compound | IC50 (BA/F3 (insSVD) cells) [nM]
13 | 3.86 | 15.4 | O=C(/C=C/CF)N1CCn2nc(-c3ccc(F)cc3)c(-c3ccncc3)c2C1 [Example 78, (2E)-4-fluoro-1-[2-(4-fluorophenyl)-3-(pyridin-4-yl)-6,7-dihydropyrazolo[1,5-a]pyrazin-5(4H)-yl]but-2-en-1-one] | 115
14 | 2.64 | 9 | O=C(/C=C/CN1CCOCC1)N1CCn2nc(-c3ccc(F)cc3)c(-c3ccncc3)c2C1 [Example 63, (2E)-1-[2-(4-fluorophenyl)-3-(pyridin-4-yl)-6,7-dihydropyrazolo[1,5-a]pyrazin-5(4H)-yl]-4-(morpholin-4-yl) but-2-en-1-one] | 221
15 | 1.73 | 4.78 | CCN(CC)C/C=C/C(=O)N1CCn2nc(-c3ccc(F)cc3)c(-c3ccncc3)c2C1 [Example 69, (2E)-4-(diethylamino)-1-[2-(4-fluorophenyl)-3-(pyridin-4-yl)-6,7-dihydropyrazolo[1,5-a]pyrazin-5(4H)-yl]but-2-en-1-one] | 194
16 | 1.47 | 2.51 | O=C(/C=C/CN1CCCC1)N1CCn2nc(-c3ccc(F)cc3)c(-c3ccncc3)c2C1 [Example 79, (2E)-1-[2-(4-fluorophenyl)-3-(pyridin-4-yl)-6,7-dihydropyrazolo[1,5-a]pyrazin-5(4H)-yl]-4-(pyrrolidin-1-yl) but-2-en-1-one] | 62.9
17 | 1.22 | 3.3 | O=C(/C=C/C(F)(F)F)N1CCn2nc(-c3ccc(F)cc3)c(-c3ccncc3)c2C1 [Example 67, (2E)-4,4,4-trifluoro-1-[2-(4-fluorophenyl)-3-(pyridin-4-yl)-6,7-dihydropyrazolo[1,5-a]pyrazin-5(4H)-yl]but-2-en-1-one] | 83.4
18 | 1.09 | 5.1 | O=C(/C=C/CF)N1CCn2nc(-c3ccc(Cl)cc3F)c(-c3ccncc3)c2C1 [Example 73, (2E)-1-[2-(4-chloro-2-fluorophenyl)-3-(pyridin-4-yl)-6,7-dihydropyrazolo[1,5-a]pyrazin-5(4H)-yl]-4-fluorobut-2-en-1-one] | 61
19 | 0.976 | 3.53 | CO[C@H]1CCN(C/C=C/C(=O)N2CCn3nc(-c4ccc(F)cc4)c(-c4ccncc4)c3C2)C1 [Example 83, (2E)-1-[2-(4-fluorophenyl)-3-(pyridin-4-yl)-6,7-dihydropyrazolo[1,5-a]pyrazin-5(4H)-yl]-4-[(3S)-3-methoxypyrrolidin-1-yl]but-2-en-1-one] | 132
20 | 0.907 | 3.09 | CCN(C)C/C=C/C(=O)N1CCn2nc(-c3ccc(F)cc3)c(-c3ccncc3)c2C1 [Example 71, (2E)-4-[ethyl(methyl)amino]-1-[2-(4-fluorophenyl)-3-(pyridin-4-yl)-6,7-dihydropyrazolo[1,5-a]pyrazin-5(4H)-yl]but-2-en-1-one] | 120
21 | 0.347 | 1.6 | O=C(/C=C/CN1CCC1)N1CCn2nc(-c3ccc(Cl)cc3F)c(-c3ccncc3)c2C1 [Example 77, (2E)-4-(azetidin-1-yl)-1-[2-(4-chloro-2-fluorophenyl)-3-(pyridin-4-yl)-6,7-dihydropyrazolo[1,5-a]pyrazin-5(4H)-yl]but-2-en-1-one] | 25.9
22 | 0.211 | 0.3 | CN(C)CC#CC(=O)N1CCn2nc(-c3ccc(Cl)cc3F)c(-c3ccncc3)c2C1 [Example 72, 1-[2-(4-chloro-2-fluorophenyl)-3-(pyridin-4-yl)-6,7-dihydropyrazolo[1,5-a]pyrazin-5(4H)-yl]-4-(dimethylamino)but-2-yn-1-one] | 17.9
23 | 0.197 | 0.995 | O=C(/C=C/Cl)N1CCn2nc(-c3ccc(Cl)cc3F)c(-c3ccncc3)c2C1 [Example 75, (2E)-3-chloro-1-[2-(4-chloro-2-fluorophenyl)-3-(pyridin-4-yl)-6,7-dihydropyrazolo[1,5-a]pyrazin-5(4H)-yl]prop-2-en-1-one] | 135
24 | 0.183 | 0.807 | O=C(/C=C/C(F)F)N1CCn2nc(-c3ccc(Cl)cc3F)c(-c3ccncc3)c2C1 [Example 74, (2E)-1-[2-(4-chloro-2-fluorophenyl)-3-(pyridin-4-yl)-6,7-dihydropyrazolo[1,5-a]pyrazin-5(4H)-yl]-4,4-difluorobut-2-en-1-one] | 34
